In ChEMBL document CHEMBL5137078, “Lysine-Tethered Stable Bicyclic Cationic Antimicrobial Peptide Combats Bacterial Infection in Vivo” (J Med Chem, 2022):
Converted amounts (≈) assume the structure as drawn.

Columns and labels:
Assay type in all cases: functional
Pseudomonas aeruginosa [1] = test: Antibacterial activity against Pseudomonas aeruginosa BNCC 125486 measured after 16 hrs by microdilution assay
Staphylococcus aureus [2] = test: Antibacterial activity against methicillin-resistant Staphylococcus aureus BNCC 186335 measured after 16 hrs by microdilution assay
Escherichia coli [3] = test: Antibacterial activity against Escherichia coli BNCC 133264 measured after 16 hrs by microdilution assay
Listeria monocytogenes = test: Antibacterial activity against Listeria monocytogenes measured after 16 hrs by microdilution assay
Staphylococcus aureus [4] = test: Antibacterial activity against Staphylococcus aureus BNCC 186335 measured after 16 hrs by microdilution assay
Pseudomonas aeruginosa [5] = test: Antibacterial activity against multidrug-resistant Pseudomonas aeruginosa BNCC 125486 measured after 16 hrs by microdilution assay
Escherichia coli [6] = test: Antibacterial activity against multidrug-resistant Escherichia coli BNCC 133264 measured after 16 hrs by microdilution assay
Acinetobacter baumannii = test: Antibacterial activity against multidrug-resistant Acinetobacter baumannii measured after 16 hrs by microdilution assay

| Compound | MIC99.9 (Pseudomonas aeruginosa [1]) [µg/mL] | MIC99.9 (Staphylococcus aureus [2]) [µg/mL] | MIC99.9 (Escherichia coli [3]) [µg/mL] | MIC99.9 (Listeria monocytogenes) [µg/mL] | MIC99.9 (Staphylococcus aureus [4]) [µg/mL] | MIC99.9 (Pseudomonas aeruginosa [5]) [µg/mL] | MIC99.9 (Escherichia coli [6]) [µg/mL] | MIC99.9 (Acinetobacter baumannii) [µg/mL] |
| --- | --- | --- | --- | --- | --- | --- | --- | --- |
| CCN1CCN(C(=O)N[C@@H](C(=O)N[C@@H]2C(=O)N3C(C(=O)O)=C(CSc4nnnn4C)CS[C@H]23)c2ccc(O)cc2)C(=O)C1=O [CEFOPERAZONE] | 2 (≈ 3.1 µM) | >128 | <1 | 16 (≈ 24.8 µM) | <1 | 128 (≈ 198 µM) | >128 | >128 |
| CN[C@H](CC(C)C)C(=O)N[C@H]1C(=O)N[C@@H](CC(N)=O)C(=O)N[C@H]2C(=O)N[C@H]3C(=O)N[C@H](C(=O)N[C@H](C(=O)O)c4cc(O)cc(O)c4-c4cc3ccc4O)[C@H](O)c3ccc(c(Cl)c3)Oc3cc2cc(c3O[C@@H]2O[C@H](CO)[C@@H](O)[C@H](O)[C@H]2O[C@H]2C[C@](C)(N)[C@H](O)[C@H](C)O2)Oc2ccc(cc2Cl)[C@H]1O [VANCOMYCIN] | >128 | 2 (≈ 1.38 µM) | >128 | 1 (≈ 0.69 µM) | 2 (≈ 1.38 µM) | >128 | >128 | >128 |
